Test results: patent US20250340519A1, “RADIOLABELLED COMPOUND” (OXFORD UNIVERSITY INNOVATION LIMITED, priority 2018, published 2025)
Where “and” joins values, the source holds several entries; their conditions need not be identical. Identical values can stand only once.

Tests used:
Panc-1 xenograft [1] = experiment: Ex vivo biodistribution in Panc-1 xenograft bearing mice; settings: Panc-1 xenograft mice, 1 h p.i., individual animals
Panc-1 xenograft [2] = experiment: as above
Method: Animals were housed in IVC cages in sex-matched groups up to 5 per cage, in an artificial day-night cycle facility, with ad libitum access to food and water. […] CaNT xenografts were generated by harvesting CaNT tumours from donor animals, and injecting a tumour homogenate subcutaneously in the flank of wild type CBA/Carl mice. Tumours were irradiated (10 Gy, 2 Gy/min) using a 300 kV X-ray device.
Biodistribution studies, where selected tissues were harvested, were performed 1 h post injection. Some animals were also administered an excess of cold, unlabelled olaparib for evaluating the specificity of tumour uptake. EF5, a hypoxia-selective marker, was injected 2 h before culling of the animal. Digital autoradiography was performed on tumour sections. Image analysis was performed using PMOD.
Cells were harvested using trypsin, washed twice using PBS, and reconstituted in DMEM. […] Tumour volumes (V) were calculated after calliper measurement using the following equation: V=(a^2×b)/2, where a is the width of the tumour and b the length (small and large diameters, respectively). The individual relative tumour volume (RTV) was defined as Vt/Vo, where Vt is the volume at a given time and Vo at the start of treatment. Animals were entered in in vivo studies when their tumour was at least 200 mm^3.
Two hours prior to PET/CT imaging, animals were exposed to X-irradiation of the tumour (10 Gy or sham) (see schedule in FIG. 13). Radiation was delivered using a Gulmay 320 kV X-irradiator; 2.0 Gy/min. […] Naïve CBA/Carl mice, not bearing tumours, were not irradiated, nor was EF5 administered.
Dynamic PET/CT images were acquired using a VECTor ^4CT integrated PET/CT system. Mice were anaesthetised by 4% isoflurane gas (0.5 L/min O2) and placed on a custom-built imaging cradle in a prone position.
After PET/CT image acquisition, animals were euthanized by cervical dislocation and selected organs, tissues and blood were removed. […] Counts per minute were converted into MBq using a calibration curve generated from known standards. Values were decay-corrected to the time of injection, and the percentage of the injected dose per gram (% ID/g) of each tissue was calculated.

Question: For `O=C(c1cc(Cc2n[nH]c(=O)c3ccccc23)ccc1[18F])N1CCN(C(=O)C2CC2)CC1` [[^18F]olaparib], which “Ex vivo biodistribution Kidney” value (Panc-1 xenograft [1]; + IR (10 Gy)) is on record?
Answer: The value was 10.0 % ID/g and 9.25 % ID/g and 10.6 % ID/g.

Question: What about the “Ex vivo biodistribution Large intestine” value (Panc-1 xenograft [1]; + IR (10 Gy)) of the same molecule?
Answer: The value was 27.5 % ID/g and 28.9 % ID/g and 16.2 % ID/g.

Question: What about the “Ex vivo biodistribution Liver” value (Panc-1 xenograft [1]; + IR (10 Gy)) of the same molecule?
Answer: The value was 25.1 % ID/g and 33.8 % ID/g and 45.7 % ID/g.

Question: What about the “Ex vivo biodistribution Pancreas” value (Panc-1 xenograft [1]; + IR (10 Gy)) of the same molecule?
Answer: The value was 13.6 % ID/g and 10.3 % ID/g and 11.4 % ID/g.

Question: And the “Ex vivo biodistribution Spleen” value (Panc-1 xenograft [1]; + IR (10 Gy))?
Answer: Its value is 45.0 % ID/g and 20.5 % ID/g and 14.3 % ID/g.

Question: And the “Ex vivo biodistribution Stomach” value (Panc-1 xenograft [1]; + IR (10 Gy))?
Answer: Its value is 4.15 % ID/g and 0.92 % ID/g and 0.87 % ID/g.

Question: What about the “Ex vivo biodistribution Bone” value (Panc-1 xenograft [1]; + block (excess cold olaparib)) of the same molecule?
Answer: The value was 1.06 % ID/g and 0.78 % ID/g and 0.80 % ID/g and 0.46 % ID/g.

Question: What about the “Ex vivo biodistribution Kidney” value (Panc-1 xenograft [1]; + block (excess cold olaparib)) of the same molecule?
Answer: Its value is 13.1 % ID/g and 5.09 % ID/g and 3.98 % ID/g and 2.44 % ID/g.

Question: And the “Ex vivo biodistribution Large intestine” value (Panc-1 xenograft [1]; + block (excess cold olaparib))?
Answer: The value was 20.1 % ID/g and 13.3 % ID/g and 61.4 % ID/g and 12.7 % ID/g.

Question: And the “Ex vivo biodistribution Liver” value (Panc-1 xenograft [1]; + block (excess cold olaparib))?
Answer: The value was 29.1 % ID/g and 32.9 % ID/g and 22.4 % ID/g and 23.1 % ID/g.

Question: And the “Ex vivo biodistribution Pancreas” value (Panc-1 xenograft [1]; + block (excess cold olaparib))?
Answer: Its value is 1.92 % ID/g and 2.29 % ID/g and 1.91 % ID/g and 1.79 % ID/g.

Question: And the “Ex vivo biodistribution Small intestine” value (Panc-1 xenograft [1]; + block (excess cold olaparib))?
Answer: Its value is 89.9 % ID/g and 77.2 % ID/g and 96.4 % ID/g and 132 % ID/g.

Question: What about the “Ex vivo biodistribution Spleen” value (Panc-1 xenograft [1]; + block (excess cold olaparib)) of the same molecule?
Answer: The value was 1.62 % ID/g and 1.46 % ID/g and 1.24 % ID/g and 0.69 % ID/g.

Question: What about the “Ex vivo biodistribution Stomach” value (Panc-1 xenograft [1]; + block (excess cold olaparib)) of the same molecule?
Answer: Its value is 1.44 % ID/g and 0.79 % ID/g and 0.46 % ID/g and 0.21 % ID/g.

Question: And the “Ex vivo biodistribution Bone” value (Panc-1 xenograft [1]; tracer alone)?
Answer: Its value is 3.38 % ID/g and 4.54 % ID/g.

Question: And the “Ex vivo biodistribution Kidney” value (Panc-1 xenograft [1]; tracer alone)?
Answer: The value was 10.5 % ID/g and 7.95 % ID/g and 6.02 % ID/g and 7.04 % ID/g and 3.41 % ID/g and 3.66 % ID/g.

Question: What about the “Ex vivo biodistribution Large intestine” value (Panc-1 xenograft [1]; tracer alone) of the same molecule?
Answer: Its value is 12.6 % ID/g and 30.5 % ID/g and 80.8 % ID/g and 27.0 % ID/g and 28.9 % ID/g and 6.61 % ID/g.

Question: And the “Ex vivo biodistribution Liver” value (Panc-1 xenograft [1]; tracer alone)?
Answer: Its value is 26.2 % ID/g and 34.6 % ID/g and 27.0 % ID/g and 21.0 % ID/g and 13.5 % ID/g and 18.0 % ID/g.

Question: And the “Ex vivo biodistribution Pancreas” value (Panc-1 xenograft [1]; tracer alone)?
Answer: Its value is 8.49 % ID/g and 9.38 % ID/g and 7.25 % ID/g and 5.52 % ID/g and 2.78 % ID/g and 4.24 % ID/g.

Question: What about the “Ex vivo biodistribution Small intestine” value (Panc-1 xenograft [1]; tracer alone) of the same molecule?
Answer: The value was 54.5 % ID/g and 58.1 % ID/g and 30.6 % ID/g and 31.9 % ID/g and 18.6 % ID/g and 26.6 % ID/g.

Question: What about the “Ex vivo biodistribution Spleen” value (Panc-1 xenograft [1]; tracer alone) of the same molecule?
Answer: Its value is 17.5 % ID/g and 13.7 % ID/g and 11.3 % ID/g and 14.0 % ID/g and 7.36 % ID/g and 8.01 % ID/g.

Question: What about the “Ex vivo biodistribution Stomach” value (Panc-1 xenograft [1]; tracer alone) of the same molecule?
Answer: The value was 2.59 % ID/g and 3.53 % ID/g and 1.81 % ID/g and 1.80 % ID/g and 0.55 % ID/g and 0.60 % ID/g.

Question: What about the “tumour uptake (group mean)” value (Panc-1 xenograft [2]; PANC-1 xenografts, 1 h after i.v. bolus, tracer alone) of the same molecule?
Answer: Its value is 3.16±0.36 % ID/g.

Question: And the “increase of tumour uptake after irradiation” value (Panc-1 xenograft [2]; PANC-1 xenografts, 2 h after 10 Gy vs non-irradiated)?
Answer: Its value is 70%.

Question: What about the “tumour uptake (group mean)” value (Panc-1 xenograft [2]; PANC-1 xenografts, 2 h after irradiation (10 Gy)) of the same molecule?
Answer: Its value is 5.35±1.16 % ID/g.

Question: And the “tumour uptake (group mean)” value (Panc-1 xenograft [2]; PANC-1 xenografts, co-injection of excess cold olaparib)?
Answer: The value was 1.20±0.17 % ID/g.

Question: What about the “Ex vivo biodistribution Small intestine” value (Panc-1 xenograft [2]; Panc-1 xenograft mice, + IR (10 Gy), 1 h p.i., individual animals) of the same molecule?
Answer: The value was 65.1 % ID/g and 113 % ID/g and 95.2 % ID/g.
